Test results taken from patent publication US10576060B2, “FK506 derivative maintaining nerve regeneration activity without immunosuppressive activity, and use thereof” (INTRON BIOTECHNOLOGY CO., LTD, priority 2014, dated 2020).
“Also recorded” adds a separate entry of the source.

How the values were obtained:
[1] = test system: CD3/CD28-activated human T-cells; experiment: In vitro T-cell activity: interleukin-2 secretion by CD3/CD28-activated human T-cells; type: cell-based; settings: compound 0.1 nM, 16 to 20 hours
Experimental: A relative immunosuppressive property of the compound compared to authentic FK506 was determined using T-lymphocytes as described in Mo, S. J. et al. (J. Am. Chem. Soc. 2011, 133, 976-985). Simply, interleukin-2 secretions were quantified after treating the compound (0.1 nM) with CD3/CD28-activated human T-cells with the compounds for 16 to 20 hours.
A relative immunosuppressive property of 31-O-demethyl-FK506 compared to authentic FK506 was determined using the same method as Example 3. (1).

[2] = test system: rat pheochromocytoma cells (PC12); experiment: Nerve regeneration activity: neurite outgrowth in NGF-treated PC12 cells; type: cell-based; settings: 10 nM compound with NGF 10 ng/mL, 96 hours
Experimental: A relative nerve regeneration activity of the compound, compared to authentic FK506, was determined using rat pheochromocytoma cells (PC12) by the method described in Mo, S. J. et al. (J. Am. Chem. Soc. 2011, 133, 976-985). The PC12 cells were treated with nerve growth factor (NGF; KOMA Biotech; 10 ng/mL) which induces neurite outgrowth for 96 hours. 10 nM of FK506 or 9-deoxo-prolyl-FK506 was treated together or excluded. The neurite lengths were measured on photographic prints by the method Revill, W. P. et al. described (J. Pharmacol. Exp. Ther. 2002, 302, 1278-1285).
A relative neuroregenerative property of 31-O-demethyl-FK506 compared to authentic FK506 was determined using the same method as Example 3. (2).
A relative nerve regeneration property of 9-deoxo-31-O-demethyl-FK506 compared to authentic FK506 was determined using the same method as Example 3. (2).

| SMILES | interleukin-2 secretion (immunosuppressive activity) [1] | neurite outgrowth promotion (neurite length) [2] |
| --- | --- | --- |
| C=CC[C@@H]1/C=C(\C)C[C@H](C)C[C@H](OC)[C@H]2O[C@@](O)(CC(=O)N3CCC[C@H]3C(=O)O[C@H](/C(C)=C/[C@@H]3CC[C@@H](O)[C@H](OC)C3)[C@H](C)[C@@H](O)CC1=O)[C@H](C)C[C@@H]2OC [9-deoxo-prolyl-FK506] | significantly increased to reach that of the normal group; also recorded: increased significantly to reach a normal level | excellent effect on neurite outgrowth promotion; also recorded: promotes neurite outgrowth in PC12 cells |
| C=CC[C@@H]1/C=C(\C)C[C@H](C)C[C@H](OC)[C@H]2O[C@@](O)(C(=O)C(=O)N3CCCC[C@H]3C(=O)O[C@H](/C(C)=C/[C@@H]3CC[C@@H](O)[C@H](O)C3)[C@H](C)[C@@H](O)CC1=O)[C@H](C)C[C@@H]2OC [31-O-demethyl-FK506] | significantly increased to reach that of the normal group; also recorded: increased significantly to reach a normal level | excellent effect on neurite outgrowth promotion; also recorded: promotes neurite outgrowth in PC12 cells |
| C=CC[C@@H]1/C=C(\C)C[C@H](C)C[C@H](OC)[C@H]2O[C@@](O)(CC(=O)N3CCCC[C@H]3C(=O)O[C@H](/C(C)=C/[C@@H]3CC[C@@H](O)[C@H](O)C3)[C@H](C)[C@@H](O)CC1=O)[C@H](C)C[C@@H]2OC [9-deoxo-31-O-demethyl-FK506] | significantly increased to reach that of the normal group; also recorded: increased significantly to reach a normal level | excellent effect on neurite outgrowth promotion; also recorded: promotes neurite outgrowth in PC12 cells |
| C=CC[C@@H]1/C=C(\C)C[C@H](C)C[C@H](OC)[C@H]2O[C@@](O)(C(=O)C(=O)N3CCCC[C@H]3C(=O)O[C@H](/C(C)=C/[C@@H]3CC[C@@H](O)[C@H](OC)C3)[C@H](C)[C@@H](O)CC1=O)[C@H](C)C[C@@H]2OC [FK506] | decreased as much as the number of CD3/CD28-inactivated human T-cells |  |
